Laboratory results published in patent US20260184687A1, “DIHYDROINDENE DERIVATIVES AS MALT1 INHIBITORS” (C4X Discovery Limited, priority 2022, published 2026).

These molecules were tested on IL-2 release from stimulated Jurkat cells (assay: Human IL-2 Release Phenotypic Assay (Assay 3)). Conditions: Jurkat cells (clone E6-1), 200 ng/mL PMA + 300 ng/mL ionomycin, 48 hours, IL-2 by ELISA.
Assay type: cell-based
Procedure: This assay measured the inhibition by MALT1 inhibitors of the IL-2 release from stimulated Jurkat cells, a human immortalized T lymphocyte cell line. IL-2 production from Jurkat cells is regulated by activation of NFκB signalling, which is in turn regulated by MALT1 protease activity.
Jurkat cells (clone E6-1, ATCC) were cultured in RPMI1640 supplemented with 10% (v/v) FBS and 1% (v/v) penicillin/streptomycin (100× liquid stocks). Cells were seeded in 96-well white tissue culture-treated plates (Perkin Elmer) at 50 000 cells/well and incubated overnight at 37° C., 5% CO2. Test compounds in DMSO at half-log dilutions were added to the cells and incubated for 30 mins. Final DMSO concentration was 0.5%. Cells were then stimulated with 200 ng/mL PMA+300 ng/mL ionomycin and incubated for 48 hours. […] IC50 values were calculated using GraphPad Prism using 4-parameter non-linear regression curve fit.

Row | IC50 [µM] | SMILES
1 | 0.25 | CN(C(=O)N1CCC(C)(O)CC1)[C@@H](c1ccc(NC2Cc3ccccc3C2(C)C)cc1)C(F)(F)F (single isomer, unassigned) [Example 16]
2 | 2.95 | CN(C(=O)N1CCC(C)(O)CC1)[C@@H](c1ccc(NC2Cc3ccccc3C2(C)C)cc1)C(F)(F)F (single isomer, unassigned) [Example 17]
3 | 0.85 | CN(C(=O)c1cc[nH]c(=O)c1)C(c1ccc(NC2Cc3ccccc3C2(C)C)nc1)C(F)(F)F (single isomer, unassigned) [Example 100, N-(1-(6-((1,1-Dimethyl-2,3-dihydro-1H-inden-2-yl)amino)pyridin-3-yl)-2,2,2-trifluoroethyl)-N-methyl-2-oxo-1,2-dihydropyridine-4-carboxamide]
4 | 2.64 | CN(C(=O)c1cc[nH]c(=O)c1)C(c1ccc(NC2Cc3ccccc3C2(C)C)nc1)C(F)(F)F (single isomer, unassigned) [Example 101, N-(1-(6-((1,1-Dimethyl-2,3-dihydro-1H-inden-2-yl)amino)pyridin-3-yl)-2,2,2-trifluoroethyl)-N-methyl-2-oxo-1,2-dihydropyridine-4-carboxamide]

Each molecule was assayed against T1, FL hMALT1 enzyme (Homo sapiens, UniProt Q9UDY8) (assay: biochemical). Conditions: not given.
T1 sequence (Q9UDY8 1-824): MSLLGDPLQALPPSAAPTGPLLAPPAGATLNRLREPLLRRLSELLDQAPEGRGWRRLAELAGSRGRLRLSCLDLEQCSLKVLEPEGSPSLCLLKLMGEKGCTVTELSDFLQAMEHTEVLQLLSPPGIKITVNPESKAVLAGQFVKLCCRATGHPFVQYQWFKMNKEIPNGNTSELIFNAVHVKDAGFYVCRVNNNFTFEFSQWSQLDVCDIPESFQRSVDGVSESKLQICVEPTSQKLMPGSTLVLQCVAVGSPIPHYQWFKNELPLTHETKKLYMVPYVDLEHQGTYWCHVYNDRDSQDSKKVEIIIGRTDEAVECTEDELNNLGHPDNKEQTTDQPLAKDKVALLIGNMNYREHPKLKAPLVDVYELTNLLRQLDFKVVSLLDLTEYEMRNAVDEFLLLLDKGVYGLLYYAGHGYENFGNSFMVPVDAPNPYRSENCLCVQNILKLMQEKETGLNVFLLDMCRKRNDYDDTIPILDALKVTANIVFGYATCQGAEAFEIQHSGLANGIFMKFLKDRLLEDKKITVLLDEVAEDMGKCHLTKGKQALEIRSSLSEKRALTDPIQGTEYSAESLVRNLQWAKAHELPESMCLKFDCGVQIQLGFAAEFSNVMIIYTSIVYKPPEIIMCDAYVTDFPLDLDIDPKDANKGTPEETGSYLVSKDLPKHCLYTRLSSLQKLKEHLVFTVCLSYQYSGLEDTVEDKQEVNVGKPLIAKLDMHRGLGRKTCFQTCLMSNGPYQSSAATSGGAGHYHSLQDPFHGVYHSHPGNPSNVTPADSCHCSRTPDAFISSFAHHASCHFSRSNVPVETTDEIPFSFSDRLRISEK

Row | IC50 [µM] | SMILES
5 | 0.21 | COCc1c(Cl)ccc2c1CC(Nc1ccc([C@H](N(C)C(=O)C3CCS(=O)(=O)CC3)C(F)(F)F)nc1)C2 (stereo partly drawn) [Example 356, N-((1S)-1-(5-((5-Chloro-4-(methoxymethyl)-2,3-dihydro-1H-inden-2-yl)amino)pyridin-2-yl)-2,2,2-trifluoroethyl)-N-methyltetrahydro-2H-thiopyran-4-carboxamide 1,1-dioxide]
6 | 0.07 | CNC(=O)[C@H]1C[C@H](C(=O)N(C)[C@@H](c2ccc(NC3Cc4ccc(Cl)c(Cl)c4C3)cn2)C(F)(F)F)C1 (stereo partly drawn) [Example 363, (1,3-trans)-N^1-((1S)-1-(5-((4,5-Dichloro-2,3-dihydro-1H-inden-2-yl)amino)pyridin-2-yl)-2,2,2-trifluoroethyl)-N^1,N^3-dimethylcyclobutane-1,3-dicarboxamide]
7 | 0.27 | CNC(=O)C1(C(=O)N(C)[C@@H](c2ccc(NC3Cc4ccc(Cl)c(F)c4C3)cn2)C(F)(F)F)CC1 (stereo partly drawn) [Example 368, N-((1S)-1-(5-((5-Chloro-4-fluoro-2,3-dihydro-1H-inden-2-yl)amino)pyridin-2-yl)-2,2,2-trifluoroethyl)-N,N′-dimethylcyclopropane-1,1-dicarboxamide]
8 | 0.072 | CC(C)c1c(Cl)ccc2c1CC(Nc1ccc([C@H](N(C)C(=O)C3CCS(=O)(=O)CC3)C(F)(F)F)nc1)C2 (stereo partly drawn) [Example 369, N-((1S)-1-(5-((5-Chloro-4-isopropyl-2,3-dihydro-1H-inden-2-yl)amino)pyridin-2-yl)-2,2,2-trifluoroethyl)-N-methyltetrahydro-2H-thiopyran-4-carboxamide 1,1-dioxide]

Continued, molecule first:

Row | SMILES | IC50 [µM]
9 | CN(C(=O)C1CCS(=O)(=O)CC1)[C@@H](c1ccc(NC2Cc3ccc(OC(F)F)cc3C2)cn1)C(F)(F)F (stereo partly drawn) [Example 324, N-((1S)-1-(5-((5-(Difluoromethoxy)-2,3-dihydro-1H-inden-2-yl)amino)pyridin-2-yl)-2,2,2-trifluoroethyl)-N-methyltetrahydro-2H-thiopyran-4-carboxamide 1,1-dioxide] | 1
10 | CN(C(=O)C1CCS(=O)(=O)CC1)[C@@H](c1ccc(NC2Cc3cccc(OC(F)F)c3C2)cn1)C(F)(F)F (stereo partly drawn) [Example 333, N-((1S)-1-(5-((4-(Difluoromethoxy)-2,3-dihydro-1H-inden-2-yl)amino)pyridin-2-yl)-2,2,2-trifluoroethyl)-N-methyltetrahydro-2H-thiopyran-4-carboxamide 1,1-dioxide] | 0.16
11 | CN(C(=O)C1CS(=O)(=O)C1)[C@@H](c1ccc(NC2Cc3ccc(Cl)c(Cl)c3C2)cn1)C(F)(F)F (stereo partly drawn) [Example 355, N-((1S)-1-(5-((4,5-Dichloro-2,3-dihydro-1H-inden-2-yl)amino)pyridin-2-yl)-2,2,2-trifluoroethyl)-N-methylthietane-3-carboxamide 1,1-dioxide] | 0.15
